Laboratory results published in ChEMBL document CHEMBL1909046, “DrugMatrix in vitro pharmacology data”.

Legend:
[1] = biological target: Mitogen-activated protein kinase 1 (Homo sapiens, UniProt P28482); experiment: DRUGMATRIX: Protein Serine/Threonine Kinase, ERK2 enzyme inhibition (substrate: Myelin Basic Protein); parameters: species or system Escherichia coli; conditions: Not Active = under 50% inhibition at 10 µM
[2] = biological target: T1, Vasoactive intestinal polypeptide receptor 1 (Homo sapiens, UniProt P32241); type: cell membranes, Membrane; conditions: ht-29; further: in other assays of this panel Not Active means under 50% inhibition at 10 µM
T1 sequence (P32241 whole entry): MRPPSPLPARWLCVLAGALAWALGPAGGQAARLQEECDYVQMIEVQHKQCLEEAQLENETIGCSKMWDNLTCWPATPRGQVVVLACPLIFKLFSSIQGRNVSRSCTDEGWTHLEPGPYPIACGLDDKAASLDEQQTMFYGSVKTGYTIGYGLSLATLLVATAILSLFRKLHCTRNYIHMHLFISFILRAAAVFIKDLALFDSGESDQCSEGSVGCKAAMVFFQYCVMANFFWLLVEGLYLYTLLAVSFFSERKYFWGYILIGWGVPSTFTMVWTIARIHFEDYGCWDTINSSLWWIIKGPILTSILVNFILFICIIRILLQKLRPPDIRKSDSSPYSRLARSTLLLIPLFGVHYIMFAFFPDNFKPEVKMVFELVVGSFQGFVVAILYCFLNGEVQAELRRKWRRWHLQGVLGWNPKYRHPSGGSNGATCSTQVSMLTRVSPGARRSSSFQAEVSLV

Substance-P receptor = Substance-P receptor (Homo sapiens, UniProt P25103); type: cell membranes, CHO, Membrane; conditions: cho; further: in other assays of this panel Not Active means under 50% inhibition at 10 µM
Chain of Substance-P receptor (P25103 whole entry): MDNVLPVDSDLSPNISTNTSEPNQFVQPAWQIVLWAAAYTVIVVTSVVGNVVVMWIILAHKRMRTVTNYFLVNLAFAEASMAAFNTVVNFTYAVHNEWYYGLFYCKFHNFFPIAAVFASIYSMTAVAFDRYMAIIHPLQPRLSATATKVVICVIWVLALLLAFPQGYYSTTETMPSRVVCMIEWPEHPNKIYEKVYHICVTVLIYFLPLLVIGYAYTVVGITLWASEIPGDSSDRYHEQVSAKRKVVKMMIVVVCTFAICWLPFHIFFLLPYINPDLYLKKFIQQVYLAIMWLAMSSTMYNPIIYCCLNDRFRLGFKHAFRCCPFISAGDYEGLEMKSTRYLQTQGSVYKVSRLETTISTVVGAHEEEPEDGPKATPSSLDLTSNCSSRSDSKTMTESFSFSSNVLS

[3] = biological target: Mitogen-activated protein kinase 3 (Homo sapiens, UniProt P27361); experiment: DRUGMATRIX: Protein Serine/Threonine Kinase, ERK1 enzyme inhibition (substrate: Myelin Basic Protein); parameters: species or system Escherichia coli; conditions: Not Active = under 50% inhibition at 10 µM
Chain of Mitogen-activated protein kinase 3 (P27361 whole entry): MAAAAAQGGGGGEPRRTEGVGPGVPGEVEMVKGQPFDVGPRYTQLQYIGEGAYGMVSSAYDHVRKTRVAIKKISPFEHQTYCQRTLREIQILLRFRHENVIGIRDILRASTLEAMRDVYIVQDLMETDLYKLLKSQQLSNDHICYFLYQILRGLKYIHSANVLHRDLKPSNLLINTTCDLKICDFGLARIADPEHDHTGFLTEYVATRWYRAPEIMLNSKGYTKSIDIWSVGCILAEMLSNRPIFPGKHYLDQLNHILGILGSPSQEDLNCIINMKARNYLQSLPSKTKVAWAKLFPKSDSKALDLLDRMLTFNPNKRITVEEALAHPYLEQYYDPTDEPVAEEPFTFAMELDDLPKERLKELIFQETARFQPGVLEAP

[4] = biological target: T2, Nitric oxide synthase, inducible (Mus musculus, UniProt P29477); parameters: species or system Escherichia coli;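 further: inhibition of iNOS enzyme activity measured with L-arginine as substrate; in other assays of this panel Not Active means under 50% inhibition at 10 µM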
T2 sequence (P29477 whole entry): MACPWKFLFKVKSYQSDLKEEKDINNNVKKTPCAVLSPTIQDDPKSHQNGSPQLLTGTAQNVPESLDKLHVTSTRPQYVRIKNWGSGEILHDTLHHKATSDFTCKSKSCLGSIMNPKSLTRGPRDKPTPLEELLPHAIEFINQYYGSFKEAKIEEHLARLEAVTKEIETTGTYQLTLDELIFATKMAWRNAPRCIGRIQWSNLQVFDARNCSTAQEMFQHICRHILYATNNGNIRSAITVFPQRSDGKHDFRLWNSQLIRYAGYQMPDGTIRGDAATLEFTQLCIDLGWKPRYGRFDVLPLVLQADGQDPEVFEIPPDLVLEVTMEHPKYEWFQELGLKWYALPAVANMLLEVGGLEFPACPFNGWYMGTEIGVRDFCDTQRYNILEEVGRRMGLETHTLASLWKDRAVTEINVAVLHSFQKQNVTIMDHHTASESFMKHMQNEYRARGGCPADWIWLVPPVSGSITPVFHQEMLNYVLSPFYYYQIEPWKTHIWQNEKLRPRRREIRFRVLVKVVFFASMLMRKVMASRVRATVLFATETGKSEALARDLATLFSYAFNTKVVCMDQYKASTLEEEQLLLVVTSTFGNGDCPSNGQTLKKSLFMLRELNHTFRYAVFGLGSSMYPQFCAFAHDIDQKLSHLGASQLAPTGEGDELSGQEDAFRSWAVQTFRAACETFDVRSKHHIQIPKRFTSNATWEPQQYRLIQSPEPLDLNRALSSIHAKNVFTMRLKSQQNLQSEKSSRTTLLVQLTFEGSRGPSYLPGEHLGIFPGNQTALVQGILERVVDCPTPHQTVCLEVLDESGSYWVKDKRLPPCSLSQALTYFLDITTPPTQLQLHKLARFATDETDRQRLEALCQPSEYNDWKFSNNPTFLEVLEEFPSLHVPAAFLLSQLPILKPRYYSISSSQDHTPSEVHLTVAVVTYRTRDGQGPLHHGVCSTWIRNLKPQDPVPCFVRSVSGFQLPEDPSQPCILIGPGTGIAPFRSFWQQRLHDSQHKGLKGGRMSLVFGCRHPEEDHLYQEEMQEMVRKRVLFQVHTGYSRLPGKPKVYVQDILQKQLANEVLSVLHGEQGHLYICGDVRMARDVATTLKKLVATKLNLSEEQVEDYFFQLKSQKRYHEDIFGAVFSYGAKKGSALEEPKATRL

[5] = biological target: T3, 5-hydroxytryptamine receptor 1A (Rattus norvegicus, UniProt P19327); type: cell membranes, CHO-K1, Membrane; further: in other assays of this panel Not Active means under 50% inhibition at 10 µM
T3 sequence (P19327 whole entry): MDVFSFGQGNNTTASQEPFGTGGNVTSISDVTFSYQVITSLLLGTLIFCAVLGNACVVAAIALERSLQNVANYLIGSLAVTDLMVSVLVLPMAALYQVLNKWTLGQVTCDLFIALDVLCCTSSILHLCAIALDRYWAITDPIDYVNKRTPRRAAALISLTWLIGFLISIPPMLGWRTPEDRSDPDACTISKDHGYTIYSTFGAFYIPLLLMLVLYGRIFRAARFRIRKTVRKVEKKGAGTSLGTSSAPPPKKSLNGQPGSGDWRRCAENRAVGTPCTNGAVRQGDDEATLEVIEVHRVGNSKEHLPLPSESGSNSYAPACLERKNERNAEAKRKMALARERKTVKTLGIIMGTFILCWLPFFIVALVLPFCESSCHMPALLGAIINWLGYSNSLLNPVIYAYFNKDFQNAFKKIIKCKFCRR

[6] = biological target: 5-hydroxytryptamine receptor 4 (Cavia porcellus, UniProt O70528); type: cell membranes, Dunkin-Hartley, Striatum, Membrane; further: in other assays of this panel Not Active means under 50% inhibition at 10 µM
Chain of 5-hydroxytryptamine receptor 4 (O70528 whole entry): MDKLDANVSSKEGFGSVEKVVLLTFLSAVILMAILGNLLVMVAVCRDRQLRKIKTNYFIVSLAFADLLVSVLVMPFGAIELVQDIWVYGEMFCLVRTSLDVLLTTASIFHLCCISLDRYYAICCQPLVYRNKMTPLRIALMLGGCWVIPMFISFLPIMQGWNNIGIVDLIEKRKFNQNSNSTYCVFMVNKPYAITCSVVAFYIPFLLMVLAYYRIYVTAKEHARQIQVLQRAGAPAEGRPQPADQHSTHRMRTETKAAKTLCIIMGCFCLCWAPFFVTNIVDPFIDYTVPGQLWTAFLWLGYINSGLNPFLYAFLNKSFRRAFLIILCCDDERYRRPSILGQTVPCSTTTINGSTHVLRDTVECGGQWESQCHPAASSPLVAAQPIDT

Chain of Mitogen-activated protein kinase 1 (P28482 whole entry): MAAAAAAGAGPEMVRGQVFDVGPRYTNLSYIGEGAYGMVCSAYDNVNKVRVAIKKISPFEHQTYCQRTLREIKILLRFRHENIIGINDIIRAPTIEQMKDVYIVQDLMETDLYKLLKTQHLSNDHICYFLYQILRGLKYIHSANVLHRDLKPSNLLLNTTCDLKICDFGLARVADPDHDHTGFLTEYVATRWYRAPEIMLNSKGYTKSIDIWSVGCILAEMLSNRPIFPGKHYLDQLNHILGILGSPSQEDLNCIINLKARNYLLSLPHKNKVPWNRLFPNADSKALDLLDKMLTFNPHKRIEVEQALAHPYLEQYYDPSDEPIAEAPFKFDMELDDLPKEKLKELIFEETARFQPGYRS

Row | Structure (SMILES) | IC50 [1] | IC50 [2] | IC50 (Substance-P receptor) | IC50 [3] | IC50 [4] | IC50 ([5]; cho-k1) | IC50 [6] | IC50 ([5]; read-out: IC50) | Ki ([5]; read-out: Ki)
1 | CCC(=O)O[C@]1(C(=O)CCl)[C@@H](C)C[C@H]2[C@@H]3CCC4=CC(=O)C=C[C@]4(C)[C@@]3(F)[C@@H](O)C[C@@]21C [CLOBETASOL PROPIONATE] | Not Active | Not Active | Not Active | Not Active | Not Active | Not Active | Not Active | – | –
2 | O=C1CN=C(c2ccccc2Cl)c2cc([N+](=O)[O-])ccc2N1 [CLONAZEPAM] | Not Active | Not Active | Not Active | Not Active | Not Active | Not Active | Not Active | – | –
3 | Nc1ccn([C@@H]2O[C@H](CO)[C@@H](O)[C@@H]2O)c(=O)n1 [CYTARABINE] | Not Active | Not Active | Not Active | Not Active | Not Active | Not Active | Not Active | – | –
4 | C[C@@H]1C[C@H]2[C@@H]3CCC4=CC(=O)C=C[C@]4(C)[C@@]3(F)[C@@H](O)C[C@]2(C)[C@H]1C(=O)CO [DESOXIMETASONE] | Not Active | Not Active | Not Active | Not Active | Not Active | Not Active | Not Active | – | –
5 | C[C@@H]1C[C@H]2[C@@H]3CCC4=CC(=O)C=C[C@]4(C)[C@@]3(F)[C@@H](O)C[C@]2(C)[C@@]1(O)C(=O)CO [DEXAMETHASONE] | Not Active | Not Active | Not Active | Not Active | Not Active | Not Active | Not Active | – | –
6 | CN(C)CC[C@@H](c1ccc(Cl)cc1)c1ccccn1 [DEXCHLORPHENIRAMINE] | Not Active | Not Active | Not Active | Not Active | Not Active | Not Active | Not Active | – | –
7 | C[C@@H]1CC[C@@]2(OC1)O[C@H]1[C@@H](O)[C@H]3[C@@H]4CC[C@H]5C[C@@H](O[C@@H]6O[C@H](CO)[C@H](O[C@@H]7O[C@H](CO)C(O)[C@H](O[C@@H]8OC[C@@H](O)[C@H](O)[C@H]8O)[C@H]7O[C@@H]7O[C@H](CO)[C@H](O)[C@H](O[C@@H]8O[C@H](CO)[C@@H](O)[C@H](O)[C@H]8O)[C@H]7O)[C@H](O)[C@H]6O)[C@H](O)C[C@]5(C)[C@H]4CC[C@]3(C)[C@H]1[C@@H]2C (stereo partly drawn) [DIGITONIN] | Not Active | Not Active | Not Active | Not Active | Not Active | Not Active | Not Active | – | –
8 | OC(CCCN1CCCCC1)(c1ccccc1)c1ccccc1 [DIPHENIDOL] | Not Active | Not Active | Not Active | Not Active | Not Active | Not Active | Not Active | – | –
9 | C[C@H]1O[C@@H](n2cc(F)c(=O)[nH]c2=O)[C@H](O)[C@@H]1O [DOXIFLURIDINE] | Not Active | Not Active | Not Active | Not Active | Not Active | Not Active | Not Active | – | –
10 | Cn1c(=O)c2c(ncn2CC(O)CO)n(C)c1=O (stereo not drawn) [DYPHYLLINE] | Not Active | Not Active | Not Active | Not Active | Not Active | Not Active | Not Active | – | –
11 | CC[C@H]1CN2CCc3cc(OC)c(OC)cc3[C@@H]2C[C@@H]1C[C@H]1NCCc2cc(OC)c(OC)cc21 [EMETINE] | Not Active | Not Active | Not Active | Not Active | Not Active | Not Active | Not Active | – | –
12 | C[C@@H](CO)NC(=O)[C@@H]1C=C2c3cccc4[nH]cc(c34)C[C@H]2N(C)C1 [ERGONOVINE] | Not Active | Not Active | Not Active | Not Active | Not Active | – | Not Active | 8.13 nM | 4.64 nM
13 | COC(=O)CCc1ccc(OCC(O)CNC(C)C)cc1 (stereo not drawn) [ESMOLOL] | Not Active | Not Active | Not Active | Not Active | Not Active | Not Active | Not Active | – | –
14 | CCC1(C)CC(=O)NC1=O (stereo not drawn) [ETHOSUXIMIDE] | Not Active | Not Active | Not Active | Not Active | Not Active | Not Active | Not Active | – | –
15 | C#C[C@]1(OC(C)=O)CC[C@H]2[C@@H]3CCC4=C[C@@H](OC(C)=O)CC[C@@H]4[C@H]3CC[C@@]21C [ETHYNODIOL DIACETATE] | Not Active | Not Active | Not Active | Not Active | Not Active | Not Active | Not Active | – | –
16 | COc1cc([C@@H]2c3cc4c(cc3[C@@H](O[C@@H]3O[C@@H]5CO[C@@H](C)O[C@H]5[C@H](O)[C@H]3O)[C@H]3COC(=O)[C@H]23)OCO4)cc(OC)c1O [ETOPOSIDE] | Not Active | Not Active | Not Active | Not Active | Not Active | Not Active | Not Active | – | –
17 | C=CCc1ccc(O)c(OC)c1 [EUGENOL] | Not Active | Not Active | Not Active | Not Active | Not Active | Not Active | Not Active | – | –
18 | CC(C(=O)O)c1cccc(Oc2ccccc2)c1 (stereo not drawn) [FENOPROFEN] | Not Active | Not Active | Not Active | Not Active | Not Active | Not Active | Not Active | – | –
19 | CC(C)(C)NC(=O)[C@H]1CC[C@H]2[C@@H]3CC[C@H]4NC(=O)C=C[C@]4(C)[C@H]3CC[C@]12C [FINASTERIDE] | Not Active | Not Active | Not Active | Not Active | Not Active | Not Active | Not Active | – | –
20 | COc1ccc2c3c1O[C@H]1C[C@@H](O)C=C[C@@]31CCN(C)C2 [GALANTAMINE] | Not Active | Not Active | Not Active | Not Active | Not Active | Not Active | Not Active | – | –
21 | Nc1ccn([C@@H]2O[C@H](CO)[C@@H](O)C2(F)F)c(=O)n1 [GEMCITABINE] | Not Active | Not Active | Not Active | Not Active | Not Active | Not Active | Not Active | – | –
